Measurements published in patent publication US5063205A, “Uptake of iron by the body” (National Research Development Corporation, priority 1987, dated 1991).

How the values were obtained:
[1] = system: intestinal fragments from the mice; experiment: In vitro 59Fe3+ uptake by intestinal fragments from EGF-fed mice; parameters: species or system mouse; settings: intestinal fragments of mice given about 1 n.mole/day EGF in drinking water; 0-450 μM Fe3+ nitrilotriacetate chelate; n in parentheses
Experimental: (§1) (A) Six week old, male To mice received doses averaging 1 n.mole/day of mouse epidermal growth factor in their drinking water during a period of up to 7 days, a control group of similar mice receiving plain drinking water. Iron absorption was then studied in the mice by both in vitro and in vivo techniques. The former, using techniques as described by Raja et al, Cell Biochem. and Funct., 1987, 5, 69-76, involved incubation of intestinal fragments from the mice with a 0-450 μM solution of a Fe^3+ chelate (the 2:1 nitrilotriacetate:iron(III) complex) whilst the latter, using techniques as described by Simpson and Peters, Biochim. Biophys. Acta., 1986, 856, 115-122), involved instillation of 50-100 μl of a 250 μM solution of the Fe^3+ chelate into a tied-off loop of intestine of an anaesthetised mouse.

[2] = system: tied-off loop of intestine of an anaesthetised mouse; experiment: In vivo 59Fe3+ uptake from tied-off loop of intestine of anaesthetised mouse
Experimental: as §1

mice = experiment: Whole body retention of intragastric 59Fe3+ by gamma counting; type: in vivo, mouse; settings: EGF in drinking water for 3 days, 12 hours fast, intragastric 1 μCurie 59Fe3+ as 50 μl of 100 μM chelate; whole body count
Experimental: (B) The procedure described under (A) was repeated but with the treated mice receiving the EGF for 3 rather than 7 days. After fasting for 12 hours both the EGF-treated and the control mice were treated intragastrically with 1 μCurie of ^59 Fe^3+ administered as 50 μl of a 100 μM aqueous solution of the radiolabelled 2:1 nitrilotriacetic acid:iron(III) complex. The mice were subjected to a whole body count by gamma counting at 3 hours and 7 days later.

duodenum = experiment: Duodenum wet weight and cell turnover (L-ornithine decarboxylase activity) after oral EGF; type: in vivo, mouse; settings: oral EGF about 1 n.mole/day, up to 7 days
[3] = given intravenously; cited from earlier work
[4] = mean ± SE, oral EGF about 1 n.mole/day in drinking water, 250 μM Fe3+ chelate in tied-off loop, p < 0.01 vs controls

epidermal growth factor [EGF]
Vmax for 59Fe3+ uptake [1]: 9.4 ± 1.1 pmol/mg/min
Time course of total mucosal uptake of 59Fe3+ in vivo ([2]; EGF in drinking water for up to 7 days): maximal after 3 days
Total mucosal flux ([2]; mean ± SE, oral EGF about 1 n.mole/day in drinking water, 250 μM Fe3+ chelate in tied-off loop, p < 0.001 vs controls): 92.4 ± 8.4 pmol 59Fe3+ /mg tissue/10 minu
Carcass transfer [2, 4]: 35.3 ± 2.6 pmol 59Fe3+ /mg tissue/10 minu
Mucosal retention [2, 4]: 57.1 ± 6.3 pmol 59Fe3+ /mg tissue/10 minu
Percentage of the 59Fe3+ present at 3 hours which was retained after 7 days (mice): 21.0±3.2
Cell turnover rates as reflected by L-ornithine decarboxylase activity in the duodenum (duodenum): elevated
Half life in vivo [3]: about 21/2
